Measured values reported in patent publication US20070264198A1, “TUMOR NECROSIS AGENT” (Ajinomoto Co., Inc., priority 2001, published 2007).
Structures can show the parent of a compound that is named as a salt.

How the values were obtained:
[1] = system: arteriole supplying nutrients to the tumor / tumor blood flow (SLC tumor); assay: Biomicroscopic observation of the change of tumor microcirculation; format: in vivo, rat; conditions: intravenous 10 mg/kg
Protocol: (§1) Donryu rats (Crj-Donryu; supplied by Charles River Japan, Inc.), male.
(§2) Rat lung carcinoma, Sato lung carcinoma (SLC)
(§3) MTPVS powder was dissolved in physiological saline to a final concentration of 10 mg/ml. The solution (10 mg/kg) was administered through the tail vein of rats. Pentobarbital salt (Nembutal; manufactured by Abbott Laboratories) and enflurane (Ethrane; manufactured by Abbott Laboratories) was used as an anesthesia. Pentobarbital was intramuscularly administered at a dose of 25 mg/kg, 10 minutes prior to the experiment, and a suitable amount thereof was additionally administered at intervals of 90 minutes to maintain anesthesia during the experiment. The concentration of enflurane was maintained at 1% (1 L/min) using an anesthesia device for small animals.
The change of the tumor blood flow (hereinafter referred to as “TBF”) was observed through a biomicroscope. The dorsal skin of the rat was held with a transparent chamber under sterile conditions, and a small fragment of tumor was implanted thereon. After the tumor started to grow thereto, the rat was tested as described in Jpn. J. Cancer Res. 81: 279-288, 1990, which is incorporated herein by reference. The chamber comprises two titanium flames of the same shape each having a circular quartz glass window with a thickness of 300 μm. After anesthesia, the rat with the chamber was put on a stage heated at 34.5° C. in the microscope.
MTPVS used in a test group was administered through the tail vein by infusion pump. […] and histological changes of tumor were directly observed through an optical microscope (Eclipse E800; manufactured by Nikon Corporation) with an eye lens of 10× and an object glass of 2× to 20×. The blood vessels of tumor in the chamber were visualized with a halogen lump of 12 V and 100 W. The images of the microscope were recorded using a CCD video camera (CS-900; manufactured by Olympus Corporation), a television monitor and an S-VHS video recorder.
At this time, in the blood vessel on the peripheral portion of the tumor, the plasma concentration was decreased, and large quantities of red blood cells were retained. These red blood cells were hemolyzed within 2 to 3 hours after MTPVS administration to form clog.
An inserted section on the left upper portion in FIG. 4 is an enlarged view of the blood vessels on the peripheral portion of the tumor. FIGS. 1 to 4 are based on photographs taken (length of a bar: 500 μm) by using an eye lens of 10× and an object glass of 4×. The inserted section is based on a photograph taken (length of a bar: 50 μm) by using an eye lens of 10× and an object glass of 20×.

[2] = system: Sato lung carcinoma (SLC); assay: Anti-tumor effect against tumor grown in the transparent chamber; format: in vivo, rat; conditions: 10 mg/kg, tail vein, Donryu rats; state maintained for 48 hours after treatment
Protocol: as §1, §2, §3
The change of the tumor blood flow (hereinafter referred to as “TBF”) was observed through a biomicroscope. The dorsal skin of the rat was held with a transparent chamber under sterile conditions, and a small fragment of tumor was implanted thereon. […]
MTPVS used in a test group was administered through the tail vein by infusion pump. […] The blood vessels of tumor in the chamber were visualized with a halogen lump of 12 V and 100 W. The images of the microscope were recorded using a CCD video camera (CS-900; manufactured by Olympus Corporation), a television monitor and an S-VHS video recorder. […]

## COc1ccc(/C=C\c2cc(OC)c(OC)c(OC)c2)cc1NC(=O)[C@@H](N)CO [MTPVS, (Z)-N-[2-methoxy-5-[2-(3,4,5-trimethoxyphenyl)vinyl]phenyl]-L-serinamide hydrochloride]
[1]
  restoration of tumor blood flow after clog and hemolysis: no longer restored
[1]; after administration
  time at which tumor blood flow stopped almost completely: 30 min
  time to hemolysis of retained red blood cells in blood vessel on peripheral portion of the tumor (clog formation): 2 to 3 hours
[1]; normal tissues
  blood vessel structure in the normal tissues: maintained as normal
[1]; rat SLC tumor in transparent chamber
  contraction of the arteriole supplying nutrients to the tumor: markedly contracted
[2]
  time to necrosis of SLC tumor grown in the transparent chamber: ≤ 25 h
